In patent publication US5536848A, “Bioactive acetogenins and derivatives” (Purdue Research Foundation, priority 1994, dated 1996):
In brackets after ≈: the same amount, converted by molar mass. Read-outs that look alike come from different tables or passages of the source.

Tests used:
[1] = test system: brine shrimp (Artemia salina Leach); assay: Brine shrimp lethality test (BST); format: in vivo; conditions: Artemia salina, read-out: BST LC50
Experimental: (§1) The brine shrimp (Artemia salina Leach) test (BST) was performed as modified to determine LC50 values in μg/ml. Seven-day in vitro cytotoxicity tests against human tumor cell lines were carried out at the Purdue Cancer Center, using standard protocols for A-549 (human lung carcinoma), MCF-7 (human breast carcinoma) and HT-29 (human colon carcinoma) with adriamycin as a positive control. The reported ED50 values in μg/ml (Table 5) were tabulated from the same run in order to facilitate comparison for the SAR's.
(§2) Bioassays. The brine shrimp (Artemia salina Leach) test (BST) was performed as modified. Zhao et al., Phytochemistry, 33, p. 1065 (1993). Seven-day in vitro cytotoxicity tests against human tumor cell lines were carried out at the Purdue Cancer Center, using standard protocols for A-549 (human lung carcinoma), Gu, Z. M.; Fang, X.-P.; Miesbauer, L. R., Smith, D. L.; and McLaughlin, J. L., 30, 31, and 32-Hydroxybullatacinones: Bioactive Terminally-Hydroxylated Annonaceous Acetogenins from Annona bullata., J. Nat. Prod., 1993, 56, 870-876; MCF-7 (human breast carcinoma) McLaughlin, J. L., Chang, C.-J., and Smith, D. L., Simple Bench-Top Bioassays (Brine Shrimp and Potato Discs) for the Discoveries of Plant Antitumor Compounds: A Review of Recent Progress. In Kinghorn, A. D., Balandrin, J. (Eds): "Human Medicinal Agents from Plants", ACS Symposium Series, Washington, D.C., American Chemical Society, 1993, pp. 112-137; and HT-29 (human colon carcinoma), Mclaughlin, J.L., Chang, C.-J., Smith, D.L., "'Bench-Top' Bioassays for the Discovery of Bioactive Natural Products: An Update", in Rahman, Atta-ur- (Ed): "Studies in Natural Product Chemistry", Vol. 9, Amsterdam, Elsevier, 1991, pp. 383-409, with adriamycin as a positive control. The reported values (Table IV) were tabulated from the same run in order to facilitate comparison for the SAR's.
(§3) Bioassay. The extracts, fractions, and isolates were routinely evaluated for lethality to brine shrimp larvae (BST). Cytotoxicities against human solid tumor cells were measured at the Purdue Cell Culture Laboratory, Purdue Cancer Center, for the A-549 lung carcinoma, MCF-7 breast carcinoma, and HT-29 colon adenocarcinoma.
(§4) The brine shrimp lethality test (BST), on newly hatched naupleii, was performed in our laboratory as previously described. McLaughlin, Methods in Plant Biochemistry, Vol. 6, Hostettmann, Academic Press, London, pp. 1-33 (1991). Seven day cytotoxicities against human solid tumor cells were measured at the Cell Culture Laboratory, Purdue Cancer Center, for the A-549 lung carcinoma, MCF-7 breast carcinoma, and HT-29 colon adenocarcinoma. The respiratory functions of rat liver mitochondria (RMB) were measured polarographically by determination of their rates of oxygen consumption after the addition of acetogenins or their derivatives.

[2] = test system: HT-29 (human colon adenocarcinoma); assay: Seven-day in vitro cytotoxicity, HT-29; format: cell-based; conditions: HT-29, 168 h, read-out: HT-29 LC50, Table 5, same run
[3] = test system: MCF-7 (human breast carcinoma); assay: Seven-day in vitro cytotoxicity, MCF-7; format: cell-based; conditions: for IC50: MCF7, 168 h
Experimental: as §1, §2, §3, §4

[4] = test system: A-549 (human lung carcinoma); assay: Seven-day in vitro cytotoxicity, A-549; format: cell-based; conditions: for IC50: A549, 168 h
Experimental: as §1, §2, §3, §4

rat liver mitochondria = assay: Rat mitochondrial bioassay (RMB), inhibition of oxygen uptake; format: biochemical; conditions: for mitochondrial inhibition: rat liver mitochondria, result in words; for RMB IC50: Table 17, oxygen consumption of rat liver mitochondria, parent and acetal derivative in the same run
Experimental: as §4
The oxidative phosphorylation pathway (or electron transport chain) is responsible for oxidizing NADH to NAD^+ and producing ATP from ADP and phosphate within the mitochondria. There are five enzyme complexes in this pathway: NADH-ubiquinone reductase (complex I), succinate-ubiquinone reductase (complex II), ubiquinone-cytochrome c reductase (complex III), cytochrome c oxidase (complex IV) and the F0 F1 -ATPase complex (complex V). The end point of the oxidative phosphorylation pathway is the reduction of oxygen (O2) to water in the mitochondria (thus, it is also called respiration), coupled with the synthesis of ATP by complex V. State 4 respiration is the oxidation of substrates in the absence of a phosphate acceptor (e.g., ADP). State 3 respiration occurs when a phosphate acceptor is present and oxygen utilization increases. The ratio of State 3 respiration to State 4 respiration is the respiratory control ratio (RCR).
The process of respiration can be measured by using an oxygen electrode to detect the amount of oxygen present in the assay cell. If respiration is occurring normally, the concentration of oxygen should slowly decrease as it is reduced to water. However, if there is some type of inhibition of oxidative phosphorylation occurring, the oxygen level will no longer decrease at the same rate. This rate of oxygen usage can be visualized by a chart recorder connected to the oxygen electrode. At normal respiration,a decreasing baseline slope will be established. During inhibition, however, the baseline slope should decrease (i.e., the slope will move closer to zero), since the oxygen present is no longer being reduced. In other words, the oxygen concentration in the assay cell is no longer decreasing at the same rate as in normal respiration. Furthermore, inhibition sites at specific complexes can be determined by competitive inhibition studies. This is accomplished by addition of a known inhibitor of, e.g., complex I, followed by the new respiration-inhibiting compound. […] This can be verified by trying inhibitors at other sites and by reversing the order, i.e., adding the new compound and then the known inhibitor.
The method for isolating rat liver mitochondria essentially followed the published methodology. Ahammadsahib et al., Life Sciences, 53, pgs. 1113-1120 (1993). The isolation buffer used for the isolation of mitochondria from rat liver consisted of 4 mM Tris-HC1, 0.5 mM EDTA, and 250 mM sucrose at a pH of 7.4. The isolation buffer was kept at refrigeration temperature at all times by storing on ice during the whole procedure. The rats were supplied by Sprague-Dawley, were male, and weighed approximately 300-320 grams. They were sacrificed with carbon dioxide, and the livers were removed and immediately placed in the isolation buffer on ice. The livers were then rinsed with several washings of cold buffer, cut into pieces, and homogenized. The homogenates were then centrifuged (Sorvall Superspeed RC2-B, 4° C) for 10 minutes at approximately 2000 rpms; the supernatant was next centrifuged for 20 minutes at approximately 9000 rpms. The pellet was reserved and resuspended in 2 ml of assay buffer with a glass pipet. The assay buffer consisted of 100 mM KC1, 5 mM KH2 PO4, 1 mM EDTA, 5 mM glutamate, 1 mM malate, and 20 mM Tris-HCl at a pH of 7.4 and was stored at room temperature. […]

[5] = test system: HT-29 (human colon adenocarcinoma); assay: Seven-day in vitro cytotoxicity, HT-29; format: cell-based; conditions: for IC50: HT-29, 168 h
Experimental: as §1, §2, §3, §4

[6] = test system: A2780 human ovarian cancer xenografts; conditions: 50 μg/kg; athymic mice bearing A2780 human ovarian cancer xenografts; cited from earlier work
[7] = read-out: MCF-7 LC50, Table 5, seven-day cytotoxicity, same run
[8] = Table 17, seven day cytotoxicity, same run, read-out: MCF-7 ED50
[9] = Table 17, seven day cytotoxicity, same run, read-out: A-549 ED50
[10] = Table 17, seven day cytotoxicity, same run, read-out: HT-29 ED50
[11] = read-out: MCF-7 ED50, Table 17, seven day cytotoxicity, same run
[12] = read-out: HT-29 ED50, Table 17, seven day cytotoxicity, same run

CCCCCCCCCCC(O)C1CCC(C2CCC(C(O)CCCCC(O)CCCCCCCC3=CC(C)OC3=O)O2)O1 (stereo not shown) [Compound 1, Bullatin]
LC50 ([1]; Table 5, brine shrimp larvae): 0.004 µg/mL (≈ 6.42 nM)
IC50 [2]: 0.00378 ng/mL (≈ 0.00607 nM)
IC50 [3, 7]: 0.00833 ng/mL (≈ 0.0134 nM)
IC50 ([4]; read-out: A-549 LC50): 0.00939 ng/mL (≈ 0.0151 nM)
mitochondrial inhibition (rat liver mitochondria): high activity

CCCCCC[C@H]1CCC[C@@H]([C@H]2CC[C@H]([C@H]3CC[C@@H]([C@@H]4CC[C@@H](CCCCCCCCCC5=C[C@H](C)OC5=O)O4)OCO3)O2)OCO1 [Compound 14, 16,19- and 24,28-bis-formaldehyde acetal derivative]
LC50 ([1]; Table 17, same run): 10.2 µg/mL (≈ 15400 nM)
IC50 [3, 8]: 1 ng/mL (≈ 1.51 nM)
IC50 [4, 9]: 1780 ng/mL (≈ 2680 nM)
IC50 [5, 10]: 0.000289 ng/mL (≈ 0.000436 nM)

CCCCCCCCCCCCCC[C@@H](O)[C@H]1CC[C@H]([C@H]2CC[C@@H](CCCCC[C@@H](O)CC3=C[C@H](C)OC3=O)OCO2)O1 [Compound 9, 10,13-Formaldehyde acetal derivative of goniothalamicin]
LC50 ([1]; Table 17, same run): 0.0538 µg/mL (≈ 88.4 nM)
IC50 [3, 8]: 0.409 ng/mL (≈ 0.672 nM)
IC50 [4, 9]: 1050 ng/mL (≈ 1720 nM)
RMB IC50 (rat liver mitochondria): 203.1 n moles/Lt/mg protein
IC50 [5, 10]: 0.0219 ng/mL (≈ 0.036 nM)

CCCCCCCCCC[C@H](O)[C@H]1CC[C@H]([C@H](O)CC[C@H](O)[C@@H]2CC[C@@H](CCCCCCC[C@@H](O)CC3=C[C@H](C)OC3=O)O2)O1 [Compound 18, Bullatalicin, reference compound]
LC50 ([1]; Table 17, same run): 1.2 µg/mL (≈ 1880 nM)
IC50 [3, 8]: 262 ng/mL (≈ 410 nM)
RMB IC50 (rat liver mitochondria): 19.2 n moles/Lt/mg protein
IC50 [5, 10]: 6.48e-05 ng/mL (≈ 0.000101 nM)

CCCCCCCCCC[C@@H](O)[C@H]1CC[C@H]([C@H](O)CC[C@H](O)[C@@H]2CC[C@@H](CCCCCCC[C@@H]3CC(CC(C)=O)C(=O)O3)O2)O1 (stereo partly drawn) [Compound 24, (2,4-Cis and trans)bullatanocinones, reference compound]
LC50 ([1]; Table 17, same run): 0.28 µg/mL (≈ 438 nM)
IC50 [3, 11]: 293 ng/mL (≈ 459 nM)
IC50 ([4]; read-out: A-549 ED50): 0.643 ng/mL (≈ 1.01 nM)
RMB IC50 (rat liver mitochondria): 61.1 n moles/Lt/mg protein
IC50 [5, 12]: 2.34e-05 ng/mL (≈ 3.66e-05 nM)

CCCCCCCCCC[C@@H](O)[C@H]1CC[C@H]([C@H]2CC[C@@H]([C@@H]3CC[C@@H](CCCCCCC[C@@H]4CC(CC(C)=O)C(=O)O4)O3)OCO2)O1 (stereo partly drawn) [Compound 25, 16,19-Formaldehyde acetal derivatives of (2,4-cis and trans)-bullatanocinones]
LC50 ([1]; Table 17, same run): 0.015 µg/mL (≈ 23 nM)
IC50 [3, 8]: 1280 ng/mL (≈ 1970 nM)
IC50 [4, 9]: 0.0677 ng/mL (≈ 0.104 nM)
RMB IC50 (rat liver mitochondria): 28.3 n moles/Lt/mg protein

CCCCCCCCCCCCCC[C@@H](O)[C@H]1CC[C@H]([C@H](O)CC[C@H](O)CCCCC[C@@H](O)CC2=C[C@H](C)OC2=O)O1 [Compound 8, Goniothalamicin, reference compound]
LC50 ([1]; Table 17, same run): 37 µg/mL (≈ 62000 nM)
IC50 [3, 8]: 0.00573 ng/mL (≈ 0.0096 nM)
IC50 [4, 9]: 0.00711 ng/mL (≈ 0.0119 nM)
RMB IC50 (rat liver mitochondria): 554.8 n moles/Lt/mg protein

CCCCCCCCCC[C@H](O)[C@H]1CC[C@H]([C@H](O)CC[C@H](O)[C@@H]2CC[C@@H](CCCCCCC[C@@H]3CC(CC(C)=O)C(=O)O3)O2)O1 (stereo partly drawn) [Compound 26, (2,4-Cis and trans)-bullatalicinones, reference compound]
LC50 ([1]; Table 17, same run): 0.47 µg/mL (≈ 736 nM)
IC50 [3, 11]: 1.57 ng/mL (≈ 2.46 nM)
IC50 ([4]; read-out: A-549 ED50): 0.0562 ng/mL (≈ 0.088 nM)
RMB IC50 (rat liver mitochondria): 23.0 n moles/Lt/mg protein

COc1cccc2c1C(=O)c1c(O)c3c(c(O)c1C2=O)C[C@@](O)(C(=O)CO)C[C@@H]3O[C@H]1C[C@H](N)[C@H](O)[C@H](C)O1 [Adriamycin, adriamycin, reference compound]
LC50 ([1]; Table 5, brine shrimp larvae): 0.257 µg/mL (≈ 473 nM)
LC50 ([1]; Table 12): 0.08 µg/mL (≈ 147 nM)
LC50 ([1]; Table 17, same run): 0.08 µg/mL (≈ 147 nM)
IC50 [2]: 0.153 ng/mL (≈ 0.281 nM)
IC50 [3, 11]: 401 ng/mL (≈ 738 nM)
IC50 [3, 7]: 17.6 ng/mL (≈ 32.4 nM)
IC50 ([3]; read-out: MCF-7 LC50, Table 12, same run): 231 ng/mL (≈ 425 nM)
EC50 ([3]; MCF7, read-out: MCF-7): 0.519 µg/mL (≈ 955 nM)
IC50 ([4]; read-out: A-549 ED50): 4.19 ng/mL (≈ 7.71 nM)
IC50 ([4]; read-out: A-549 LC50): 0.104 ng/mL (≈ 0.191 nM)
EC50 ([4]; A549, read-out: A-549): 8.5 ng/mL (≈ 15.6 nM)
IC50 [5, 12]: 35.5 ng/mL (≈ 65.3 nM)
IC50 ([5]; read-out: HT-29 LC50, Table 12, same run): 39.2 ng/mL (≈ 72.1 nM)
EC50 ([5]; HT-29, read-out: HT-29): 0.0372 µg/mL (≈ 68.4 nM)

CCCCCCCCCCCCCC[C@H]1OCO[C@@H]1CC[C@H](O)[C@@H]1CC[C@@H](CCCCC[C@@H](O)CC2=C[C@H](C)OC2=O)O1 [Compound 12, 17,18-formaldehyde acetal derivative]
LC50 ([1]; Table 17, same run): 0.0075 µg/mL (≈ 12.3 nM)
IC50 [3, 8]: 268 ng/mL (≈ 440 nM)
IC50 [4, 9]: 69.5 ng/mL (≈ 114 nM)
RMB IC50 (rat liver mitochondria): 290.3 n moles/Lt/mg protein

CCCCCCCCCC[C@H](O)[C@H]1CC[C@H]([C@H]2CC[C@H]([C@H](O)CCCCCCCCCC[C@@H](O)CC3=C[C@H](C)OC3=O)O2)O1 [Bullatacin, reference compound]
tumor growth inhibition (TGI) [6]: 67%
mitochondrial inhibition (rat liver mitochondria): high activity
